Reference: patent US9802990B2, “Functional peptides for obesity disorders” (DANONE, S.A., priority 2013, dated 2017)
Where no end group is shown, it is not given here.

Experiments:
[1] = system: C. elegans wild type strain N2; experiment: C. elegans body fat reduction, Nile Red staining; type: in vivo, Caenorhabditis elegans
Method: The ability to reduce body fat content in the nematode C. elegans was analyzed in a group of 5 peptide extracts previously obtained from glycinin (see Table 4). These samples were selected by their high effect on PL and PLA2 in vitro inhibition. Specifically, 5 peptide extracts were selected from the PLA2 inhibition assay (M20G, M5G, M31G, M27G and M29G). Body fat content was analyzed in the C. elegans wild type strain N2 by Red Nile dying of living nematodes. Experiments were carried out with age-synchronized populations, starting from egg-stage to young adult stage (3-day adults). During the experiments, worms were cultured in the NGM agar plates as control condition, NGM with the corresponding peptide extracts (100 μL/plate) and NGM with 6 μg/mL of Orlistat as positive control. Nile Red was added on top of the NG plates already seeded with Escherichia coli OP50 strain to a final concentration of 0.05 μg/ml. After incubation at 20° C., young adult worms (60 worms per condition) were taken to measure the in vivo fluorescence in a VersaFluor™ Fluorometer System. Fluorescence obtained in treated worms was calculated from fluorescence of worms fed in control conditions (reference sample). Experiments were carried out by duplicate.
From these purified fractions, a total of 11 peptides were selected to be synthesized and evaluated in vivo in the obesity model of C. elegans (Table 9). All peptides were evaluated at 1 μg/mL of final concentration.
We selected 5 peptides obtained from hydrolysis of glycinin with strain 6 (P8a, P6a, P14c, P16f, P14b) The peptides from glycinin were added to a soy fermented product (Savia® from Danone) both alone or mixed at final concentration of 1 μg/mL. Nematodes were fed with these products and then total lipids were quantified by Nile Red staining.

[2] = biological target: PLA2 (pancreatic phospholipase A2) (Homo sapiens, UniProt P04054); experiment: PLA2 inhibition assay by HPLC with DOPC as substrate; type: biochemical
PLA2 (pancreatic phospholipase A2), sequence (P04054 23-148, species assumed): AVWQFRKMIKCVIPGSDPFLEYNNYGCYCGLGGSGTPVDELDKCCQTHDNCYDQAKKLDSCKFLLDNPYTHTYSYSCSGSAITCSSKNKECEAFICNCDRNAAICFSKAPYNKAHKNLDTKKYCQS
Method: Inhibition of PLA2 enzyme was determined by High Performance Liquid Chromatography (HPLC) using 1,2-dioleoyl-sn-glycero-3-phosphocholine (DOPC) as substrate as described by Singh et al. (A rapid isocratic high-performance liquid chromatography method for determination of cholesterol and 1,2-dioleoyl-sn-glycero-3-phosphocholine. Journal of Chromatography (2005); 1073:347-353). Waters 2695 HPLC with Waters 2996 Photodiode detector Array and a C8 column Hypersil BDS (250×4.6 mm, […]) were used carrying out an eluent isocratic method formed by a mixture of ammonium phosphate buffer 50 mM pH 2.7:methanol (15:85, v/v).

[3] = In vitro enzymatic digestion model of the digestive tract (pepsin, pancreatin, bile), HPLC; type: in vitro ADME
Excerpt: An in vitro enzymatic digestion model of an in vivo digestive tract was developed for mimicking the physiological conditions to check and certify that each selected peptide was differently degraded throughout the gastro-intestinal tract by the digestive process. Pepsin, pancreatin and bile concentrations were optimized using a published experimental design (Granado-Lorencio et al (2007). J. Agri. Food. Chem., 55, 6387-6394).

PL (pancreatic lipase) = biological target: T1, PL (pancreatic lipase) (Sus scrofa, UniProt P00591); experiment: PL inhibition assay with 4-methyl umbelliferyl oleate (4MUO), fluorescence; type: biochemical; conditions: synthesized peptides
T1 sequence (P00591 1-450): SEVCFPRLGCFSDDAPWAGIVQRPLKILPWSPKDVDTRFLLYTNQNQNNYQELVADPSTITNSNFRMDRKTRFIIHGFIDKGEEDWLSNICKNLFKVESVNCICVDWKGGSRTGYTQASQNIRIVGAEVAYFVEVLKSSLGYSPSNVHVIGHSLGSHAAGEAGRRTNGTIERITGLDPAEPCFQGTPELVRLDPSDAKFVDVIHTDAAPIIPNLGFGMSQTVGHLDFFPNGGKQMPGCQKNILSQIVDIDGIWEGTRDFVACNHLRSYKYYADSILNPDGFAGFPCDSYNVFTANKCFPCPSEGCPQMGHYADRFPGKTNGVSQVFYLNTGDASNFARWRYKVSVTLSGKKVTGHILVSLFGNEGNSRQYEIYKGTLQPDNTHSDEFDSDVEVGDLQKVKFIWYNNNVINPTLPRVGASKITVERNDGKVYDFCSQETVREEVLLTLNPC
Method: Inhibition of PL was determined using 4-methyl umbelliferyl oleate (4MUO) as substrate as described by Sugiyama et al. (Oligomeric procyanidins in apple polyphenol are main active components for inhibition of pancreatic lipase and triglyceride absorption. J Agric Food Chem (2007); 55: 4604-4609) with some modifications. Aliquots of 25 μl of each peptide extract were incubated with 25 μl of PL solution (1 mg/ml) and preincubated for 10 minutes at 26° C. with stirring of 500 rpm. Reaction was initiated by adding 50 μl of 4MUO (0.1 mM) dissolved in Dulbecco's buffer. After incubation at 26° C. for 20 minutes with constant stirring (500 rpm) the reaction was stopped by adding 100 μl of 0.1 M sodium citrate buffer (pH 4.2). The amount of 4-methyl umbelliferone released by the enzyme was determined by fluorescence. Peptide extracts were used as inhibitors in the enzymatic assay but had to be diluted 1/20 or 1/50 because of the interference between the fluorescence and the buffer containing the peptides.

Percentage of PLA2 inhibition ([2]; peptide 0.035 mg/ml): 12.7 ± 6.1% | Percentage of PLA2 inhibition ([2]; peptide 0.35 mg/ml): 12.9 ± 3.9% | Percentage of PLA2 inhibition ([2]; peptide 2 mg/ml): 26.0 ± 6.4% | Percentage of PLA2 inhibition ([2]; peptide 3.5 mg/ml): 20.1 ± 7.7% | Degradation (%) ([3]; Gastric phase 30 min.): −1.3% | Degradation (%) ([3]; Gastric phase 120 min.): −1.0% | degradation in the in vitro digestion model (in words) ([3]; HPLC, completely degraded = at the beginning of the intestinal phase, resistant ones finally degraded at the end): resistant until the end of the process | metabolised at 0.25 h ([3]; Intestinal phase 15 min., read-out: Degradation (%)): 51.2% | metabolised at 0.5 h ([3]; Intestinal phase 30 min., read-out: Degradation (%)): 71.6% | metabolised at 1 h ([3]; Intestinal phase 60 min., read-out: Degradation (%)): 90.7% | metabolised at 2 h ([3]; Intestinal phase 120 min., read-out: Degradation (%)): 100% | metabolised at 5 min ([3]; Oral phase 5 min., read-out: Degradation (%)): 1.7% | IC50 (PL (pancreatic lipase)): 68.9 µM
Sequence: SVIKPPTD [Peptide P8a, SVIKPPTD]
% Fluorescence Reduction ([1]; nematodes fed NG with peptides alone or in Savia soy fermented product, alone or mixed, 1 μg/mL final concentration, Nile Red): 41.7 ± 4.02% | % Fluorescence Reduction C. elegans ([1]; synthesized peptides at 1 μg/mL of final concentration): 44.67 ± 10.5%
